Results on two compounds are retold here after paper PMC2982748 (Arteriosclerosis, thrombosis, and vascular biology, 2010).

The assay concerns the target P2Y12 (Homo sapiens, UniProt Q9H244). The experiment in a line: β-arrestin recruitment. In kind it is cell-based. (In general: Recruitment of arrestin is a read-out of receptor activation apart from second messengers.)

Structures are written as SMILES.

Sequence of P2Y12 (Q9H244 whole entry): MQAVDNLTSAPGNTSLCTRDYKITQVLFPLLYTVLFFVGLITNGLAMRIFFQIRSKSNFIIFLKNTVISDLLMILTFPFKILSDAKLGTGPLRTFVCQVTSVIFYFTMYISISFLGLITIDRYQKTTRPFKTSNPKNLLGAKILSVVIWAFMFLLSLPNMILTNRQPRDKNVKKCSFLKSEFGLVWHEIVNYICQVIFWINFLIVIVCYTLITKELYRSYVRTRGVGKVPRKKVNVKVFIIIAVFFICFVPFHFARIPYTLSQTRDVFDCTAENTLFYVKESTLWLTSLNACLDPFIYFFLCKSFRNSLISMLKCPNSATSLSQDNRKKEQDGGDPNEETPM

In turn, `CCCCC/C=C\C\C=C/C=C/C=C/[C@@H](SC[C@H](N)C(=O)O)[C@@H](O)CCCC(=O)O` [LTE4] registered an EC50 of 0.013 nM. For the compound `Nc1ncnc2c1ncn2[C@@H]1O[C@H](COP(=O)(O)OP(=O)(O)O)[C@@H](O)[C@H]1O` [ADP], the response was half-maximal at 5000 nM (EC50).

By EC50 is commonly meant the concentration giving half of the maximal effect. Lower therefore signals an effect from little substance.
